Reference: patent US8551997B2, “Structural-based inhibitors of the glutathione binding site in aldose reductase, methods of screening therefor and methods of use” (The Board of Regents of the University of Texas System, priority 2004, dated 2013)

Experiments:
C57BL/6 mice = test: LPS-induced cytokines in serum and heart of mice; format: in vivo, mouse
Method: At the indicated times, TNF-a, IL-6, IL-12, interferon (IFN)-g, IL-1b, and monocyte chemo attractant protein (MCP)-1 levels in serum and in heart homogenates were determined (FIGS. 6A-6D). Prostaglandin E2 (PGE-2), cyclo-oxygenase 2 (COX-2), and nitrate levels were measured separately (FIG. 6E). Solid symbols, values from the mice injected with LPS; open symbols, values from the mice treated with LPS and sorbinil.
In sorbinil-treated mice, however, serum cytokine levels increased only 2-fold, began declining within 4 h, and returned to baseline levels within 12 h.

HT29-GFP cells = test: HT29-GFP liver metastasis in nude mice; format: in vivo, mouse; settings: sorbinil 40 mg/kg body weight in the diet, 34 days
Method: For in vivo metastasis studies, 4- to 6-weeks-old male nude^nu/nu mice were obtained from Harlan Sprague Dawley (Indianapolis, Ind.) and housed in clean, pathogen-free rooms in an environment with controlled temperature (22° C.), humidity and a 12 hours light/dark cycle. The mice were fed standard chow (Formula Chow 5008; Purina Mills, St. Louis, Mo.), given tap water ad libitum and were allowed to acclimate for 1 week. Metastatic HT29-GFP cells were injected intrasplenically by known methods.
Briefly, mice were anesthetized with halothane, a small left abdominal flank incision was created and the spleen was exteriorized. HT29-GFP cells were harvested using only trypsin and were resuspended as a single-cell suspension in Hanks Balanced Salt Solution, free of Mg^2+ and Ca^2+. HT29-GFP cells (5×10^6 cells/400 μl) were injected into the spleen with a 27-gauge needle. The spleen was returned to the abdomen and the wound was closed in one layer with wound clips. After 24 hrs spleen was removed and animals were randomized into metastatic control and AR inhibitor, sorbinil group. Control group was fed with normal diet and AR inhibitor group fed with sorbinil (40 mg/kg body weight) in the diet. Mice were killed after 35 days, and metastasis in the liver was evaluated by using the Illumatool TLS (Lightools Research, Encinitas, Calif.). […]

Caco-2 cells [1] = test: Membrane-bound PKC activity in Caco-2 cells; format: cell-based, human
Method: PKC activity was measured using the Promega-Sigma TECT PKC assay system as described earlier (15). Briefly, aliquots of the reaction mixture (25 mM Tris-Hcl pH 7.5, 1.6 mg/mL phosphatidylserine, 0.16 mg/mL diacylglycerol, and 50 mM MgCl2) were mixed with […] (3,000 Ci/mmol, 10 μCi/μL) and incubated at 30° C. for 10 min. To stop the reaction, 7.5 M guanidine hydrochloride were added and the phosphorylated peptide was separated on binding paper. The extent of phosphorylation was detected by measuring radioactivity retained on the paper.

A549 cells [2] = test: Western blot of Cox-2 and iNOS in A549 cells; format: cell-based, human; settings: concentration dependent
Method: (§1) To examine expression of any of Cox-1, Cox-2, phospho-PKC-2, GAPDH, E2F1, Cyclin D1, Cyclin E, and iNOS proteins, Western blot analyses were carried by known methods (15). Equal amounts of protein from cell extracts were subjected to 12% SDS-PAGE followed by transfer of proteins to nitrocellulose filters, probing with the indicated antibodies, and the antigen-antibody complex was detected by enhanced chemiluminescence (Pierce, Piscataway, N.J., USA).

BALB/C mice = test: Azoxymethane-induced colon carcinogenesis, ACF analysis; format: in vivo, mouse; settings: 9 weeks
Method: Approximately six weeks old mice were divided into 4 groups (5 mice/group). Mice in groups 3 and 4 were treated with azoxymethane in sterile saline, at a dose of 10 mg/kg body weight i.p. once a week, for 3 weeks. In group 4, mice were treated with AR inhibitor sorbinil (25 mg/kg body weight per day) for entire period after 1 week from the first azoxymethane injection. Mice in groups 1 and 2 received equal volumes of sterile saline and sorbinil, respectively. Similarly AR knock out mice also were treated with azoxymethane (10 mg/kg body weight i.p.) once a week for 3 weeks. After 9 weeks all mice were killed by CO2 euthanasia. The colons were removed, flushed with saline and opened from anus to cecum and fixed flat between two pieces of filter paper in 10% buffered formalin for 24 h. Colons were stained with 0.2% methylene blue dissolved in saline and the numbers of aberrant crypts foci (ACF) were counted under a microscope at 200× magnification.
BALB/C mice were injected with azoxymethane or saline and treated with and with out AR inhibitor, sorbinil as described in Example 2. At the early preneoplastic stage (9 weeks after first azoxymethane injection), mice were sacrificed and their colons were removed and analyzed microscopically for the presence of ACF. […]

A549 cells [3] = test: Western blot of cell cycle regulatory proteins in A549 cells; format: cell-based, human; settings: various concentrations
Method: as §1

Caco-2 cells [4] = test: Reactive oxygen species in Caco-2 cells (DCFH-DA); format: cell-based, human; settings: 20 μM, FGF or PDGF 10 ng/ml 60 min
Method: Caco-2 cells were plated in a 24-well plate at a density of 1.5×10^4 cells/well in DMEM and then serum-starved at 60-70% confluence in the absence and presence of 20 μM sorbinil or tolrestat for overnight in phenol red-free DMEM supplemented with 0.1% FBS. Cells were then pre-incubated for 30 min with the ROS-sensitive fluorophore 2′,7′-dichlorofluorescein diacetate (DCFH-DA), which is taken up and oxidized to the fluorescent dichlorofluorescein by intracellular ROS. After incubation with DCFH-DA, the cells were exposed to FGF or PDGF 10 ng/ml for 60 min and fluorescence was measured with a CytoFluorII fluorescence plate reader (PerSeptive Biosystems, Inc., Framingham, Mass.) at excitation of 485 nm and emission of 528 nm.

Caco-2 cells [5] = test: NF-kB p65 transcription factor (DNA binding) assay; format: cell-based, human
Method: The cytosolic as well as nuclear extracts were prepared as described earlier (15) and the NF-kB activity was determined by using the colorimetric non-radioactive NF-kB p65 Transcription Factor Assay kit (Chemicon Intl.) as per the supplier's instructions. Briefly, a double stranded biotinylated oligonucleotide containing the consensus sequence for NF-kB binding (5′-[…]-3′; SEQ ID NO: 3) was mixed with nuclear extract and assay buffer. After incubation, the mixture (probe+extract+buffer) was transferred to the streptavidin-coated ELISA kit and read at 450 nm using an ELISA plate reader. For each experiment, triplicate samples were measured for statistical significance.

[6] = sorbinil pretreatment, LPS 4 mg/kg

In the case of “(S)-6-fluorospiro[chroman-4,4′-imidazolidine]-2,5′-dione [sorbinil]”, the “maladaptive systemic inflammatory response in serum” value (C57BL/6 mice; sorbinil 2 h after LPS exposure) is reported as “blunted”, the “time at which serum cytokine levels began declining” value (C57BL/6 mice; [6]) is reported as ≤ 4 h and the “time at which serum cytokine levels returned to baseline” value (C57BL/6 mice; [6]) is reported as ≤ 12 h. The “increase of serum cytokine levels after LPS” value (C57BL/6 mice; sorbinil pretreatment, LPS 4 mg/kg peritoneally) was 2 fold, the “tumor metastasis to the liver (GFP fluorescence, pixel numbers)” value (HT29-GFP cells) was “significant decrease” and the “growth factor-induced increase in membrane-bound PKC activity” value (Caco-2 cells [1]) was “significantly prevented”. For the same substance, the “total PKC activity” value (Caco-2 cells [1]; sorbinil by itself) was “did not alter”, the “Cox-2 and iNOS expression” value (A549 cells [2]) was “inhibit” and the “azoxymethane-induced Cox-2 and iNOS expression in mice colons” value (BALB/C mice) was “inhibits”. For the same substance, the “number of average ACF/colon” value (BALB/C mice; azoxymethane+sorbinil 25 mg/kg body weight per day) was 2.4±0.5, the “E2F-1, Cyclin E and Cyclin D1 expression” value (A549 cells [3]) was “significant inhibition” and the “growth factor-induced increase in ROS” value (Caco-2 cells [4]) was “inhibited”. The “inhibition of BFGF or PDGF-induced NF-kB DNA binding activity” value (Caco-2 cells [5]) was > 70%.
